Experimental data: publication PMC8983201 (Evidence-based Complementary and Alternative Medicine : eCAM, 2022)

What was measured:
Format in all cases: cell-based
[1] = tested on: tested cancer cell lines; assay: RRA cytotoxicity, summary over the panel of tested cancer cell lines; settings: all cell lines tested (Table 3 panel)
Protocol: (§1) 18 cancer cell lines and normal hepatocyte AML12 were used in the present study. Cancer cell lines such as drug-sensitive leukemia CCRF-CEM and multidrug-resistant P-glycoprotein-overexpressing subline CEM/ADR5000 cells, breast cancer MDA-MB-231-pcDNA cells and its resistant subline MDA-MB-231-BCRP clone 23 cells, colon cancer HCT116 p53^+/+ cells and its knockout clone HCT116 p53^−/−, glioblastoma U87MG cells, and its resistant subline U87MG.ΔEGFR [7, 23, 24]. The maintenance of HepG2 cells and AML12 hepatocytes was also published. The CC531 rat colon carcinoma cells, B16-F1, B16-F10, A2058, SK-Mel505, MaMel-80a, MV3, SkMel-28, and Mel-2A, were previously reported.
(§2) Different types of human cancer cell lines were used in this study. The resazurin reduction assay (RRA) as previously described with similar experimental conditions to those reported earlier was used to measure the cell cytotoxicity. Fluorescence was measured on an Infinite M2000 Pro™ plate reader (Tecan, Germany) using an excitation wavelength of 544 nm and an emission wavelength of 590 nm. The viability was determined based on a comparison with untreated cells. The values representing the sample's concentrations required to inhibit 50% of cell proliferation (IC50) were calculated from a calibration curve by linear regression using Microsoft Excel 2013 [33, 34].

[2] = tested on: MaMel-80a (BRAF-V600E homozygous mutant melanoma); assay: RRA cytotoxicity, MaMel-80a; settings: Homo sapiens, compounds
Protocol: as §1, §2

[3] = tested on: SKMel-28 (BRAF-V600E homozygous mutant); assay: RRA cytotoxicity, SKMel-28; settings: Homo sapiens, SK-MEL-28; SKMel-28, compounds
Protocol: as §1, §2

[4] = tested on: A2058 (BRAF-V600E heterozygous mutant); assay: RRA cytotoxicity, A2058; settings: Homo sapiens; A2058, compounds
Protocol: as §1, §2

[5] = tested on: Mel-2a (BRAF-V600E heterozygous mutant); assay: RRA cytotoxicity, Mel-2a; settings: Homo sapiens, compounds
Protocol: as §1, §2

[6] = tested on: MV3 (BRAF wild type); assay: RRA cytotoxicity, MV3; settings: Homo sapiens; MV3, compounds
Protocol: as §1, §2

[7] = tested on: SKMel-505 BRAF wild-type melanoma cells; assay: RRA cytotoxicity, SKMel-505; settings: Homo sapiens; SKMel-505, compounds
Protocol: as §1, §2

[8] = tested on: CC531 rat colon carcinoma cells; assay: RRA cytotoxicity, CC531; settings: Colon carcinoma cell, CC531, compounds
Protocol: as §1, §2

[9] = tested on: B16-F1 murine melanoma; assay: RRA cytotoxicity, B16-F1; settings: Mus musculus; B16-F1, compounds
Protocol: as §1, §2

[10] = tested on: B16-F10 murine melanoma; assay: RRA cytotoxicity, B16-F10; settings: Mus musculus; B16-F10, compounds
Protocol: as §1, §2

[11] = tested on: CCRF-CEM leukemia cells; assay: Resazurin reduction assay (RRA) cytotoxicity, CCRF-CEM; settings: Homo sapiens, doxorubicin
Protocol: as §1, §2

[12] = tested on: breast cancer MDA-MB-231-pcDNA cells; assay: RRA cytotoxicity, MDA-MB-231-pcDNA; settings: Homo sapiens, doxorubicin
Protocol: as §1, §2

[13] = tested on: MDA-MB-231-BCRP clone 23 cells; assay: RRA cytotoxicity, MDA-MB-231-BCRP; settings: Homo sapiens, doxorubicin
Protocol: as §1, §2

[14] = tested on: HCT116 p53−/− cells; assay: RRA cytotoxicity, HCT116 (p53−/−); settings: Homo sapiens, HCT-116, doxorubicin
Protocol: as §1, §2

[15] = tested on: glioblastoma U87MG cells; assay: RRA cytotoxicity, U87MG; settings: Homo sapiens, U-87 MG, doxorubicin
Protocol: as §1, §2

[16] = tested on: U87MG.ΔEGFR cells; assay: RRA cytotoxicity, U87MG.ΔEGFR; settings: Homo sapiens, doxorubicin
Protocol: as §1, §2

[17] = tested on: HepG2 hepatocarcinoma cells; assay: RRA cytotoxicity, HepG2; settings: Homo sapiens; HepG2, doxorubicin column of Table 2
Protocol: The resazurin reduction assay (RRA) as previously described [24, 32] with similar experimental conditions to those reported earlier [26–30] was used to measure the cell cytotoxicity. Fluorescence was measured on an Infinite M2000 Pro™ plate reader (Tecan, Germany) using an excitation wavelength of 544 nm and an emission wavelength of 590 nm. The viability was determined based on a comparison with untreated cells.

[18] = tested on: normal AML12 hepatocytes; assay: RRA cytotoxicity, normal AML12 hepatocytes; settings: Mus musculus; AML12, doxorubicin column of Table 2
Protocol: as §1, §2

How did the IC50 [1] turn out when CC(CCC1(O)OC2CC3C4CC=C5CC(OC6OC(CO)C(O)C(O)C6O)CCC5(C)C4CCC3(C)C2C1C)COC1OC(CO)C(O)C(O)C1O [Compound 8, 26-O-β-D-glucopyranosyl-(22R,25R)-3β, 22, 26-trihydroxyfurost-5-ene-3-O-β-D-glucopyranoside] was run?
Its IC50 is greater than 100 µM.

C[C@@H]1CC[C@@]2(OC1)O[C@H]1C[C@H]3[C@@H]4CC=C5C[C@@H](O[C@@H]6O[C@H](CO)[C@@H](O[C@@H]7O[C@H](CO)[C@@H](O)[C@H](O)[C@H]7O)[C@H](O)[C@H]6O[C@@H]6O[C@@H](C)[C@H](O)[C@@H](O)[C@H]6O)CC[C@]5(C)[C@H]4CC[C@]3(C)[C@H]1[C@@H]2C [Compound 7, deltonin] was tested. Which IC50 [1] did it give?
Its IC50 is greater than 100 µM.

CC(CCC1(O)OC2CC3C4CC=C5CC(OC6OC(CO)C(O)C(OC7OC(CO)C(O)C(O)C7O)C6OC6OC(C)C(O)C(O)C6O)CCC5(C)C4CCC3(C)C2C1C)COC1OC(CO)C(O)C(O)C1O [Compound 3, (25R)-26-O-(β-D-galactopyranosyl)-furost-5-ene-3β, 22α, 26-trihydroxy-3-O-β-D-glucopyranosyl-(1 ⟶ 2)-[α-L-rhamnopyranosyl-(1 ⟶ 3)]-β-D-glucopyranoside] was tested. Which IC50 [1] did it give?
Its IC50 is greater than 100 µM.

With C[C@@H]1CC[C@@]2(OC1)O[C@H]1C[C@H]3[C@@H]4CC=C5C[C@@H](O)CC[C@]5(C)[C@H]4CC[C@]3(C)[C@H]1[C@@H]2C [Compound 5, diosgenin] as the molecule, how does the IC50 [2] read?
The IC50 was greater than 100 µM.

What about the IC50 [3] of the same molecule?
Its IC50 is greater than 100 µM.

What about the IC50 [4] of the same molecule?
Its IC50 is 27.1 ± 1.18 µM.

What about the IC50 [5] of the same molecule?
The IC50 was greater than 100 µM.

What about the IC50 [6] of the same molecule?
The IC50 was greater than 100 µM.

What about the IC50 [7] of the same molecule?
The IC50 was greater than 100 µM.

What about the IC50 [8] of the same molecule?
The IC50 was greater than 100 µM.

And the IC50 [9]?
The IC50 was greater than 100 µM.

And the IC50 [10]?
Its IC50 is greater than 100 µM.

How did the IC50 [11] turn out when COc1cccc2c1C(=O)c1c(O)c3c(c(O)c1C2=O)C[C@@](O)(C(=O)CO)C[C@@H]3O[C@H]1C[C@H](N)[C@H](O)[C@H](C)O1 [Doxorubicin, reference compound] was run?
Its IC50 is 0.02 µM.

What about the IC50 [12] of the same molecule?
Its IC50 is 0.13 ± 0.01 µM.

What about the IC50 [13] of the same molecule?
Its IC50 is 0.79 ± 0.08 µM.

And the IC50 [14]?
Its IC50 is 1.78 ± 0.08 µM.

And the IC50 [15]?
The IC50 was 0.26 ± 0.03 µM.

What about the IC50 [16] of the same molecule?
The IC50 was 0.98 ± 0.07 µM.

And the IC50 [17]?
Its IC50 is 4.56 ± 0.48 µM.

What about the IC50 [18] of the same molecule?
The IC50 was 52.9 ± 4.09 µM.

And the IC50 [2]?
The IC50 was 8.66 ± 0.56 µM.

And the IC50 [3]?
The IC50 was 2.14 ± 0.12 µM.

And the IC50 [4]?
Its IC50 is 0.29 ± 0.04 µM.

What about the IC50 [5] of the same molecule?
The IC50 was 6.63 ± 0.41 µM.

And the IC50 [6]?
The IC50 was 7.09 ± 0.59 µM.

What about the IC50 [7] of the same molecule?
The IC50 was 9.39 ± 1.01 µM.

What about the IC50 [8] of the same molecule?
Its IC50 is 0.44 ± 0.23 µM.

And the IC50 [9]?
Its IC50 is 0.22 ± 0.01 µM.

What about the IC50 [10] of the same molecule?
Its IC50 is 0.24 ± 0.03 µM.

Which results are given for C[C@@H]1CC[C@@]2(OC1)O[C@H]1C[C@H]3[C@@H]4CC=C5C[C@@H](O[C@@H]6O[C@H](CO)[C@@H](O)[C@H](O)[C@H]6O)CC[C@]5(C)[C@H]4CC[C@]3(C)[C@H]1[C@@H]2C [Compound 6, diosgenin-3-O-β-D-glucopyranoside]?
IC50 [2]: > 100 µM; IC50 [3]: > 100 µM; IC50 [4]: 38.9 ± 2.78 µM; IC50 [5]: > 100 µM; IC50 [6]: > 100 µM; IC50 [7]: > 100 µM; IC50 [8]: > 100 µM; IC50 [9]: 79.2 ± 5.39 µM; IC50 [10]: > 100 µM
